The subject of the experiment is Hyperlipidemic Hamster. The experiment is described as follows: In Vivo Assay of Hypolipidemic Agents Using the Hyperlipidemic Hamster. The settings on record: 0.5% cholesterol diet 7 days, oral gavage once daily in corn oil, percent change versus control, negative = lowering; for change in vivo at 50 mg/kg / change in vivo at 3 mg/kg / change in vivo at 10 mg/kg / change in vivo at 8 mg/kg / change in vivo at 1 mg/kg / change in vivo at 5 mg/kg / change in vivo at 7 mg/kg: Mesocricetus auratus, 168 h. The protocol: The in vivo activity of the compounds of formula I can be determined by the following procedure: […]
In Vivo Assay of Hypoligidemic Hypolipidemic Agents Using the Hyperlipidemic Hamster
Hamsters are separated into groups of six and given a controlled cholesterol diet (Purina Chow #5001 containing 0.5% cholesterol) for seven days. Diet consumption is monitored to determine dietary cholesterol exposure in the face of test compounds. The animals are dosed with the test compound once daily beginning with the initiation of diet. Dosing is by oral gavage of 0.2 mL of corn oil alone (control group) or solution (or suspension) of test compound in corn oil. All animals moribund or in poor physical condition are euthanized. After seven days, the animals are anesthetized by intramuscular (IM) injection of ketamine and sacrificed by decapitation. Blood is collected into vacutainer tubes containing EDTA for plasma lipid analysis and the liver excised for tissue lipid analysis. Lipid analysis is conducted as per published procedures (Schnitzer-Polokoff, R., et al. Comp. Biochem. Physiol., 99A, 4 (1991), p. 665-670) and data is reported as percent reduction of lipid versus control.
Using the test procedures described above, the following in vivo data were obtained for the exemplified compounds. Data is reported as percent change (i.e., percent reduction in cholesterol esters) versus control, therefore, negative numbers indicate a positive lipid-lowering effect.

The mark [1] stands for this setting: liver cholesterol esters, dose 10 mg/kg.
[2] abbreviates: liver cholesterol esters, read-out: % Reduction Cholest. Esters.
[3] abbreviates: po, read-out: % Reduction Serum Cholest.
[4] abbreviates: liver cholesterol esters, dose 1 mg/kg.
The mark [5] stands for this setting: liver cholesterol esters, dose 10 mg/kg, read-out: % Reduction Cholest. Esters.
[6] abbreviates: po, dose 10 mg/kg, read-out: % Reduction Serum Cholest.
Where [7] appears, read: liver cholesterol esters, dose 1 mg/kg, read-out: % Reduction Cholest. Esters.
[8] abbreviates: po, dose 1 mg/kg, read-out: % Reduction Serum Cholest.

Like-named read-outs stand apart in the source and are kept apart here.

With `COc1ccc([C@@H]2C([C@@H](O)c3cccc4ccccc34)C(=O)N2c2ccccc2)cc1` (stereo partly shown) [Example 3L], the “% Reduction Serum Cholest.” value (dose 10 mg/kg) is reported as −15%. Also, under setting [1], the “% Reduction Cholest. Esters” value is given as −21%.

Consider `COc1ccc([C@H]2C(C[C@@H](OC(C)=O)c3ccccc3)C(=O)N2c2ccccc2)cc1` (stereo partly shown) [Example 2], for which the change in vivo at 50 mg/kg was 0% under setting [2] and 0% under setting [3].

In the case of `O=C1[C@H](CC[C@H](O)c2ccc(F)cc2)[C@@H](c2ccc(OCc3ccccc3)cc2)N1c1ccc(F)cc1` [Example 6A-1], the “% Reduction Serum Cholest.” value (dose 1 mg/kg) is reported as −43%. Moreover, the “% Reduction Cholest. Esters” value under setting [4] was −93%.

As to `COc1ccc([C@H]2C(C[C@@H](O)c3ccccc3)C(=O)N2c2ccccc2)cc1` (stereo partly shown) [Example 1A], the change in vivo at 50 mg/kg was 0% under setting [2] and -2.3% under setting [3].

For `COc1ccc([C@@H]2[C@@H](CC[C@H](OC(C)=O)c3ccccc3)C(=O)N2c2ccc(OC)cc2)cc1` [Example 8B, 1,4(S)-bis(4-methoxyphenyl)-3(R)-(3(S)-acetoxy-3-phenylpropyl)-2-azetidinone], the change in vivo at 3 mg/kg reads like this: under setting [2], -95%; under setting [3], -50%.

Consider `COCOc1ccc(C(O)CCC2C(=O)N(c3ccc(OC)cc3)[C@@H]2c2ccc(OC)cc2)cc1` (stereo partly shown) [Example 5], for which the change in vivo at 10 mg/kg under setting [5] is -64% and the change in vivo at 10 mg/kg under setting [6] worked out at 0%.

Take `O=C1[C@@H]([C@H](O)CCc2ccccc2)[C@@H](c2ccc(O)cc2)N1c1ccc(F)cc1` [Example 10]: the change in vivo at 3 mg/kg is -77% under setting [2] and -26% under setting [3].

With `COc1ccc(N2C(=O)C(CC[C@@H](O)c3ccccc3)[C@H]2c2ccc(OC(C)=O)cc2)cc1` (stereo partly shown) [Example 6C], the change in vivo at 3 mg/kg was -48% under setting [2] and 0% under setting [3].

Take `COc1ccc([C@@H]2[C@@H](CC[C@@H](OC(C)=O)c3ccccc3)C(=O)N2c2ccc(OC)cc2)cc1` [Example 8A, 1,4(S)-bis(4-methoxyphenyl)-3(R)-(3(R)-acetoxy-3-phenylpropyl)-2-azetidinone]: the change in vivo at 3 mg/kg reads like this: under setting [2], -44%; under setting [3], 0%.

On to `COc1ccc([C@@H]2C(CC[C@H](O)c3ccccc3)C(=O)N2c2ccc(OC)cc2)cc1` (stereo partly shown) [Example 4B], for which the change in vivo at 8 mg/kg was -89% under setting [2] and -37% under setting [3].

With `COc1ccc([C@@H]2C([C@@H](O)CCc3ccccc3)C(=O)N2c2ccccc2)cc1` (stereo partly shown) [Example 3A], the change in vivo at 50 mg/kg was -69% under setting [2] and -31% under setting [3].

On to `O=C1C(CC[C@H](O)c2ccc(F)cc2)[C@@H](c2ccc(O)cc2)N1c1ccc(F)cc1` (stereo partly shown) [Example 6A], for which the change in vivo at 1 mg/kg reads like this: under setting [7], -95%; under setting [8], -59%.

Take `COc1ccc(N2C(=O)C(CC[C@@H](O)c3ccccc3)[C@H]2c2ccc(O)cc2)cc1` (stereo partly shown) [Example 4E]: the change in vivo at 3 mg/kg runs as follows: under setting [2], -46%; under setting [3], 0%.

As for `CC(=O)Oc1ccc([C@@H]2[C@@H](CC[C@@H](OC(C)=O)c3ccc(F)cc3)C(=O)N2c2ccc(F)cc2)cc1` [Example 8C, 4(S)-(4-acetyloxyphenyl)-3(R)-(3(R)-acetyloxiy-3-(4-fluorophenyl)propyl)-1-(4-fluorophenyl)-2-azetidinone], the “% Reduction Serum Cholest.” value (dose 1 mg/kg) is −14%. Besides, the “% Reduction Cholest. Esters” value under setting [4] was −37%.

On to `COc1ccc([C@@H]2C(C[C@@H](O)c3ccccc3)C(=O)N2c2ccccc2)cc1` (stereo partly shown) [Example 1B], for which the change in vivo at 50 mg/kg is -39% under setting [2] and -15% under setting [3].

Take `COc1ccc([C@@H]2C([C@@H](O)c3cccc4ccccc34)C(=O)N2c2ccccc2)cc1` (stereo partly shown) [Example 3M]: the “% Reduction Serum Cholest.” value (dose 10 mg/kg) came out at 0%. Also, under setting [1], the “% Reduction Cholest. Esters” value is recorded as −22%.

Regarding `COc1ccc([C@@H]2C(CC[C@@H](O)c3ccccc3)C(=O)N2c2ccc(OC)cc2)cc1` (stereo partly shown) [Example 4A], the change in vivo at 5 mg/kg is, setting by setting: under setting [2], -54%; under setting [3], 0%.

As to `CC(=O)Oc1ccc([C@@H]2[C@@H](CC[C@H](OC(C)=O)c3ccc(F)cc3)C(=O)N2c2ccc(F)cc2)cc1` [Example 8D, 4(S)-(4-acetyloxyphenyl)-3(R)-(3(S)-acetyloxy-3-(4-fluorophenyl)propyl)-1-(4-fluorophenyl)-2-azetidinone], the change in vivo at 1 mg/kg under setting [7] was -98% and the change in vivo at 1 mg/kg under setting [8] was -49%.

For the molecule `COc1ccc([C@H]2[C@H](CC[C@H](O)c3ccccc3)C(=O)N2c2ccc(OC)cc2)cc1` [Example 4D], the change in vivo at 7 mg/kg is, setting by setting: under setting [2], 0%; under setting [3], 9%.

Take `COc1ccc([C@@H]2[C@H](C(O)CCc3ccccc3)C(=O)N2c2ccccc2)cc1` (stereo partly shown) [Example 3C]: the change in vivo at 50 mg/kg reads like this: under setting [2], -92%; under setting [3], -60%.

With `COc1ccc(N2C(=O)C(CC[C@H](O)c3ccccc3)[C@H]2c2ccc(O)cc2)cc1` (stereo partly shown) [Example 4F], the change in vivo at 3 mg/kg by setting is: under setting [2], -95%; under setting [3], -29%.

Regarding `O=C1C(CC[C@@H](O)c2ccc(F)cc2)[C@@H](c2ccc(O)cc2)N1c1ccc(F)cc1` (stereo partly shown) [Example 6B], the change in vivo at 3 mg/kg is -92% under setting [2] and -40% under setting [3].

As for `CC(=O)Oc1ccc([C@@H]2C(CC[C@@H](OC(C)=O)c3ccc(Cl)cc3)C(=O)N2c2ccc(Cl)cc2)cc1` (stereo partly shown) [Example 8F], the change in vivo at 1 mg/kg reads like this: under setting [7], -94%; under setting [8], -43%.

For `COc1ccc(N2C(=O)C(CC[C@H](O)c3ccccc3)[C@H]2c2ccc(OC(C)=O)cc2)cc1` (stereo partly shown) [Example 6D], the change in vivo at 10 mg/kg by setting is: under setting [5], -95%; under setting [6], -46%.

For `COc1ccc([C@@H]2[C@H]([C@H](O)CCc3ccccc3)C(=O)N2c2ccccc2)cc1` [Example 3H], the change in vivo at 10 mg/kg by setting is: under setting [5], -86%; under setting [6], -41%.

Consider `CC(=O)Oc1ccc([C@@H]2C(CC[C@H](OC(C)=O)c3ccc(Cl)cc3)C(=O)N2c2ccc(Cl)cc2)cc1` (stereo partly shown) [Example 8E], for which the change in vivo at 3 mg/kg is -66% under setting [2] and -22% under setting [3].
